Test results: article PMC10939713 (Pharmaceutical research, 2024)
“Also recorded” adds a separate entry of the source. Where a name gives a salt, the structure may show the parent alone. Values belong to the compound of their own block, whether it stands above or below them.

How the values were obtained:
[1] = cited from earlier work
[2] = Mouse pharmacokinetic natural product-drug interaction study; assay type: in vivo, C57BL/6 mice; settings: for AUC(0-t) / Cmax / AUC0-4h / AUC0-24h / Metabolite-to-parent AUC0-4h ratio / Metabolite-to-parent AUC0-24h ratio: geometric mean (CV%); for tmax: median (range)
[3] = cited from earlier work; remark: listed apart in the source
[4] = Drug solubility in simulated intestinal fluids; assay type: physicochemical
[5] = rats; oral administration of EGCG and sunitinib; cited from earlier work
[6] = FaSSIF pH 6.5
[7] = FeSSIF pH 5.0
[8] = rats; EGCG group (control group 79%); cited from earlier work
[9] = mice, plasma, raloxifene 20 mg/kg oral with EGCG 12.96 mg/kg
[10] = mice, plasma, raloxifene 20 mg/kg oral with green tea extract 200 mg/kg
[11] = mice, raloxifene 20 mg/kg oral alone in vehicle
[12] = mice, raloxifene 20 mg/kg oral with EGCG 12.96 mg/kg
[13] = mice, raloxifene 20 mg/kg oral with green tea extract 200 mg/kg

overt effects in the mice after administration ([2]; during the study): No overt effects | AUC(0-t) ([2]; male, C57BL/6, mouse, plasma, po, 20 mg/kg, AUC0-4h, mice, raloxifene 20 mg/kg oral with EGCG 12.96 mg/kg): 0.322 µM·h | AUC(0-t) ([2]; male, C57BL/6, mouse, plasma, po, 20 mg/kg, AUC0-4h, mice, raloxifene 20 mg/kg oral with green tea extract 200 mg/kg): 0.2 µM·h | AUC(0-t) ([2]; male, C57BL/6, mouse, plasma, po, 20 mg/kg, AUC0-24h, mice, raloxifene 20 mg/kg oral with EGCG 12.96 mg/kg): 0.867 µM·h | AUC(0-t) ([2]; male, C57BL/6, mouse, plasma, po, 20 mg/kg, AUC0-24h, mice, raloxifene 20 mg/kg oral with green tea extract 200 mg/kg): 0.669 µM·h | Cmax ([2]; male, C57BL/6, mouse, plasma, po, 20 mg/kg, Cmax, mice, raloxifene 20 mg/kg oral with EGCG 12.96 mg/kg (0, 4, 8 h)): 168 nM | Cmax ([2]; male, C57BL/6, mouse, plasma, po, 20 mg/kg, Cmax, mice, raloxifene 20 mg/kg oral with green tea extract 200 mg/kg (0, 4, 8 h)): 79 nM | tmax ([2]; male, C57BL/6, mouse, plasma, po, 20 mg/kg, tmax, mice, raloxifene 20 mg/kg oral with EGCG 12.96 mg/kg): 0.5 h | tmax ([2]; male, C57BL/6, mouse, plasma, po, 20 mg/kg, tmax, mice, raloxifene 20 mg/kg oral with green tea extract 200 mg/kg): 4 h | raloxifene solubility in FeSSIF compared to FaSSIF ([4]; FeSSIF pH 5.0 vs FaSSIF pH 6.5): 3.4 fold
SMILES: O=C(c1ccc(OCCN2CCCCC2)cc1)c1c(-c2ccc(O)cc2)sc2cc(O)ccc12 [Raloxifene, Raloxifene hydrochloride]
logP [1]: 5.78 | oral bioavailability [3]: ~ 2%

solubility in simulated intestinal fluids (in words) ([4]; at 0.16 mg/mL): completely soluble
SMILES: CC(C)(C)NCC(O)COc1cccc2c1CC(O)C(O)C2 (centres unmarked) [Nadolol]
logP [1]: 0.85

Cmax ([2]; mice, plasma, raloxifene 20 mg/kg oral with EGCG 12.96 mg/kg (0, 4, 8 h)): 820 nM | AUC0-4h [2, 9]: 1200 (53) nM•h | AUC0-24h [2, 9]: 2150 (52) nM•h | Cmax ([2]; mice, plasma, raloxifene 20 mg/kg oral with green tea extract 200 mg/kg (0, 4, 8 h)): 288 nM | AUC0-4h [2, 10]: 624 (31) nM•h | AUC0-24h [2, 10]: 1560 (32) nM•h | Metabolite-to-parent AUC0-4h ratio [2, 11]: 2.74 (30) | Metabolite-to-parent AUC0-24h ratio [2, 11]: 2.23 (36) | tmax [2, 11]: 0.25 (0.25 - 0.5) h | Metabolite-to-parent AUC0-4h ratio [2, 12]: 3.74 (25) | Metabolite-to-parent AUC0-24h ratio [2, 12]: 2.48 (38) | tmax [2, 12]: 0.5 (0.25 - 4) h | Metabolite-to-parent AUC0-4h ratio [2, 13]: 3.12 (34) | Metabolite-to-parent AUC0-24h ratio [2, 13]: 2.33 (24) | tmax [2, 13]: 0.25 (0.25 - 0.5) h
SMILES: O=C(c1ccc(OCCN2CCCCC2)cc1)c1c(-c2ccc(O)cc2)sc2cc(O[C@@H]3O[C@H](C(=O)O)[C@@H](O)[C@H](O)[C@H]3O)ccc12 [Raloxifene-6-glucuronide, raloxifene-6-glucuronide]

effect on Cmax of raloxifene and raloxifene-6-glucuronide (in words) ([2]; mice, compared to vehicle group, EGCG 12.96 mg/kg): no effect | effect on raloxifene solubility in FaSSIF (in words) [6]: decreased the solubility
SMILES: O=C(O[C@@H]1Cc2c(O)cc(O)cc2O[C@@H]1c1cc(O)c(O)c(O)c1)c1cc(O)c(O)c(O)c1 [EGCG, (−)-epigallocatechin gallate]
reduction of sunitinib AUC0-∞ [5]: 52% | reduction of sunitinib Cmax [5]: 48% | effect on raloxifene solubility (concentration) in FeSSIF (in words) [7]: neither green tea extract nor EGCG significantly affected; also recorded: did not change; also recorded: Neither green tea extract nor EGCG had a significant effect | intestinal absorption of cholesterol from a test meal [8]: 63%
